Here are results for 21 compounds from ChEMBL document CHEMBL1147562, “Synthesis of potent and highly selective nonguanidine azetidinone inhibitors of human tryptase” (Bioorg Med Chem Lett, 2004).

The target in data set [1] is Tryptase (Homo sapiens, UniProt Q9BZJ3+Q15661+Q9NRR2). The experiment in a line: Inhibitory activity of compound against human tryptase was determined. The format is protein assay.
Data set [2] has as its target Prothrombin (Homo sapiens, UniProt P00734). The experiment in a line: Inhibitory activity of compound against Thrombin was determined.
Data set [3] deals with Urokinase-type plasminogen activator (Homo sapiens, UniProt P00749). Briefly: Inhibitory activity of compound against Urokinase-type plasminogen activator was determined.
In data set [4] the target is Plasminogen (Rattus norvegicus, UniProt Q01177). Briefly: Inhibitory activity of compound against Plasmin was determined.
The target of data set [5] is Coagulation factor X (Homo sapiens, UniProt P00742). The experiment in a line: Inhibitory activity of compound against Coagulation factor X was determined.
Data set [6] deals with Tissue-type plasminogen activator (Homo sapiens, UniProt P00750). Briefly: Inhibitory activity of compound against tissue type plasminogen activator was determined.
In data set [7] the target is Serine protease 1 (Homo sapiens, UniProt P07477). Briefly: Inhibitory activity of compound against Trypsin was determined.
Data set [8] is described as follows: physchem.
The nature of data set [9]: Half-life of compound was determined at pH 7. In kind it is ADME.
Data set [10] is described as follows: Half-life of compound was determined at pH 9. In kind it is ADME.

Serine protease 1, sequence (P07477 whole entry): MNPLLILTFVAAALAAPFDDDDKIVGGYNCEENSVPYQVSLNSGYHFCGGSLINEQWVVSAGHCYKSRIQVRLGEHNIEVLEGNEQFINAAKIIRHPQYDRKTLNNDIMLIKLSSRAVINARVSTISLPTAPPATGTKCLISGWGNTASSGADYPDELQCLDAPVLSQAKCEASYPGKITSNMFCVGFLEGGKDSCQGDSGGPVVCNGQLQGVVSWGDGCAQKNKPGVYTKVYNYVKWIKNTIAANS
Tissue-type plasminogen activator, sequence (P00750 whole entry): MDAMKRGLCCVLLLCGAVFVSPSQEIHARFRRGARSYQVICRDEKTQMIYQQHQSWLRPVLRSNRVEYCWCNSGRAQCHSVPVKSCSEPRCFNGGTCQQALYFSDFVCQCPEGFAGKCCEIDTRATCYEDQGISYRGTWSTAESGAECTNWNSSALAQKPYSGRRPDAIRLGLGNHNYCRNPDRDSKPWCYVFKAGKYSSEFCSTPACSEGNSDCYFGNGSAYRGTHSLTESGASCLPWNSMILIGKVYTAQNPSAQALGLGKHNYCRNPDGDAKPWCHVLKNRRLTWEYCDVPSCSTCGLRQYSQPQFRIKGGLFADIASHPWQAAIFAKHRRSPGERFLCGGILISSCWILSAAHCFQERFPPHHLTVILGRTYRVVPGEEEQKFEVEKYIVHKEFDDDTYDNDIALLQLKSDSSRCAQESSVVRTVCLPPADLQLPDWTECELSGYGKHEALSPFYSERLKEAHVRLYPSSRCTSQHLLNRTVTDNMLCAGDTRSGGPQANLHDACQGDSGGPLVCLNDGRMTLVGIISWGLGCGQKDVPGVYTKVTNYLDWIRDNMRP
Plasminogen, sequence (Q01177 97-581 limits assumed): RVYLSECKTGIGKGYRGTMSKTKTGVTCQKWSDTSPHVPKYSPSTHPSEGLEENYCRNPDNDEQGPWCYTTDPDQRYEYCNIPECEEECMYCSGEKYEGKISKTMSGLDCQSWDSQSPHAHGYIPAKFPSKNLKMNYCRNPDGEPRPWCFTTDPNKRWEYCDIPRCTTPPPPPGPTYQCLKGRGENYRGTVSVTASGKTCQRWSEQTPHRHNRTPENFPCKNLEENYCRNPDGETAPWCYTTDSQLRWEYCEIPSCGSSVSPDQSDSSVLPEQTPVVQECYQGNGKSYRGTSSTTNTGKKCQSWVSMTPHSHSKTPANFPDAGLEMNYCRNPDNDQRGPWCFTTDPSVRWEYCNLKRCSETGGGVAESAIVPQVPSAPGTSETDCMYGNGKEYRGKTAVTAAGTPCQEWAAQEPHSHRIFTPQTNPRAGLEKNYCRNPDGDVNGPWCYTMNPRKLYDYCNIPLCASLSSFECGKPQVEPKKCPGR
Plasminogen, sequence (Q01177 582-812 limits assumed): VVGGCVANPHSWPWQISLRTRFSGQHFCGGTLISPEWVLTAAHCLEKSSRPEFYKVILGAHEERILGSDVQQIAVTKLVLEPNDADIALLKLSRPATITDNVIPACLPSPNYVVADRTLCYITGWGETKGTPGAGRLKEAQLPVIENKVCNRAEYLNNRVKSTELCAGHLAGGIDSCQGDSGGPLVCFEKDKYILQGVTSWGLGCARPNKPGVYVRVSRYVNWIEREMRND
Coagulation factor X, sequence (P00742 41-179 limits assumed): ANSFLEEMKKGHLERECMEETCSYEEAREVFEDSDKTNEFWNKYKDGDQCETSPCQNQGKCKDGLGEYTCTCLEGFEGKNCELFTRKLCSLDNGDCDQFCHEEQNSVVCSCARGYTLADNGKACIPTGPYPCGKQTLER
Coagulation factor X, sequence (P00742 235-488 limits assumed): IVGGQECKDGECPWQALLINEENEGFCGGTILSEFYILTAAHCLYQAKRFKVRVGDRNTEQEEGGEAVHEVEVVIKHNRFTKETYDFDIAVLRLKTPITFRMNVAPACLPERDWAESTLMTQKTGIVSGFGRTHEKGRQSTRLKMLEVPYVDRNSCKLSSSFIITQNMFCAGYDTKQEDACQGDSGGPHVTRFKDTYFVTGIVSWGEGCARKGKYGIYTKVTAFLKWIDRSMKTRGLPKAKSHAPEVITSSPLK

Broadly, the IC50 is the concentration that inhibits the measured activity by half. A low value points to greater potency. Take `NCCCC[C@H]1C(=O)N(C(=O)N2CCN(C(=O)CCCCCc3ccccc3)CC2)[C@@H]1C(=O)O`: the IC50 in [1] is reported as less than 1.7 nM. Same read-out and setting: to `O=C(O)[C@@H]1[C@@H](CC2CCNCC2)C(=O)N1C(=O)Nc1ccccc1` belongs 147 nM. On the same count and under the same terms, then `CC(C)C(OC(=O)N1CCN(C(=O)N2C(=O)[C@H](CCCCCN)[C@H]2C(=O)O)CC1)C(C)C`, with 34 nM; and `CC(C)C(OC(=O)N1CCN(C(=O)N2C(=O)[C@H](Cc3cccc(CN)c3)[C@H]2C(=O)O)CC1)C(C)C`, with 19 nM.

As for `O=C(O)[C@@H]1[C@@H](CCC2CCCNC2)C(=O)N1C(=O)N1CCN(C(=O)CCCCCc2ccccc2)CC1` (stereo not given in full), the IC50 in data set [2] was greater than 33000 nM; in data set [3], greater than 33000 nM; in [4] it was 309 nM; in [5] it was greater than 33000 nM; in [6], greater than 33000 nM; in data set [1] it was 1.8 nM. The IC50 in data set [7] is 10000 nM.

`CC(C)C(OC(=O)N1CCN(C(=O)N2C(=O)[C@H](Cc3ccc(CN)cc3)[C@H]2C(=O)O)CC1)C(C)C`: in [1], the IC50 came to 211 nM.

In data set [1], `CC(C)C(OC(=O)N1CCN(C(=O)N2C(=O)[C@H](Cc3ccc(N)nc3)[C@H]2C(=O)O)CC1)C(C)C` yielded a half-inhibitory concentration (IC50) of 1053 nM. The same measure, in the same setting: then `CC(C)C(OC(=O)N1CCN(C(=O)N2C(=O)[C@H](CC3CCCNC3)[C@H]2C(=O)O)CC1)C(C)C` (stereo not given in full), with 17899 nM; and `N=C(N)N1CCC[C@H](C[C@H]2C(=O)N(C(=O)N3CCN(C(=O)CCCCCc4ccccc4)CC3)[C@@H]2C(=O)O)C1`, with less than 1.7 nM. `CC(C)C(OC(=O)N1CCN(C(=O)N2C(=O)[C@H](CCC3CCNCC3)[C@H]2C(=O)O)CC1)C(C)C`: in data set [1], the 50% inhibitory concentration (IC50) is given as 1214 nM. Still for that read-out and setting: then `N=C(N)N1CCC(C[C@H]2C(=O)N(C(=O)Nc3ccccc3)[C@@H]2C(=O)O)CC1`, with 515 nM.

By pKa is commonly meant the pH at which an ionisable group is half protonated. `Nc1ccccn1` [2-AMINOPYRIDINE]: the pKa in [8] was found to be 7. For the compound `CC(C)C(OC(=O)N1CCN(C(=O)N2C(=O)[C@H](CCCN)[C@H]2C(=O)O)CC1)C(C)C`, the IC50 in [1] was greater than 33000 nM. For orientation: half-life means the time needed for the level to fall by half in the phase considered. High values mean slow loss, low ones fast loss. As for `O=C(O)[C@@H]1[C@@H](CC2CCNCC2)C(=O)N1C(=O)N1CCN(C(=O)CCCCCc2ccccc2)CC1`, the half-life in [9] was greater than 48 h; in data set [10], 35 h. The compound also returned a 50% inhibitory concentration (IC50) in data set [1] of 1 nM. In the case of `CC(C)C(OC(=O)N1CCN(C(=O)N2C(=O)[C@H](CCCCN)[C@H]2C(=O)O)CC1)C(C)C`, the IC50 in data set [1] is reported as 7 nM. On the same count and under the same terms, then `N=C(N)N1CCC[C@@H](C[C@H]2C(=O)N(C(=O)N3CCN(C(=O)CCCCCc4ccccc4)CC3)[C@@H]2C(=O)O)C1`, with less than 1.7 nM. With `CC(C)C(OC(=O)N1CCN(C(=O)N2C(=O)[C@H](CC3CCNCC3)[C@H]2C(=O)O)CC1)C(C)C`, the IC50 in data set [2] is greater than 33000 nM; in [3], 7000 nM; in [4], 6220 nM; in [5], greater than 33000 nM; in data set [6] it was greater than 33000 nM; in data set [1], 29 nM. This compound also displayed an IC50 in [7] of 935 nM. Consider `CC(C)C(OC(=O)N1CCN(C(=O)N2C(=O)[C@H](Cc3ccnc(N)c3)[C@H]2C(=O)O)CC1)C(C)C`, for which the IC50 in data set [1] is given as 61 nM. Compound `CC(C)C(OC(=O)N1CCN(C(=O)N2C(=O)[C@H](CC3CCNC3)[C@H]2C(=O)O)CC1)C(C)C` (stereo not given in full) came in with a concentration for half-maximal inhibition (IC50) in data set [1] of 2605 nM. The same measure, in the same setting: then `CC(C)C(OC(=O)N1CCN(C(=O)N2C(=O)[C@H](CCCCN=C(N)N)[C@H]2C(=O)O)CC1)C(C)C` (single isomer, unassigned), with 39 nM; and `CC(C)C(OC(=O)N1CCN(C(=O)N2C(=O)[C@H](CCCCCCN)[C@H]2C(=O)O)CC1)C(C)C`, with 32 nM.
